This note sets out measurements from patent EP0484596A1, “Organotin compounds and anti-tumor compositions containing them” (priority 1990, dated 1992).

Each structure is given as a SMILES string.

One assay relates to MCF-7 mammary carcinoma. In words: in vitro cell growth inhibition, PIT method, MCF-7. Conditions: amount which inhibits 50% of the cell growth. The class given is cell-based, human. How it is done:
(§1) The compounds (1), (2) and (3) as well as their starting compounds, i.e. (4), (5) and (6) respectively, [drawing 8] were tested in vitro against the following human tumor cell lines • MCF-7 mammary carcinoma • WiDr colon tumor cells
(§2) The tests were carried out according to the method of R. van Lambalgen and P. Lelieveld, The PIT Method: an automated in vitro technique for drug toxicity testing. Invest. New Drug 5, 161-165 (1987).
(§3) The ID50 values in ng/ml for the above compounds were determined, i.e. the amount which inhibits 50% of the cell growth.

The next assay concerns WiDr colon tumor cells. The experiment in a line: in vitro cell growth inhibition, PIT method, WiDr. Conditions: amount which inhibits 50% of the cell growth. Type of assay: cell-based, human. As for the experimental part: as §1, §2, §3

For `N.N.[Cl][Pt][Cl]` [Cis-platin], the ID50 in the assay on MCF-7 mammary carcinoma was determined as 0.85 µg/mL; with WiDr colon tumor cells it was 0.624 µg/mL.
